Common to all, as to assay: H2O2 reduction peroxidase assay
Common to all, as to type: biochemical
Common to all, as to conditions: covalent; […] protein, […] H2O2, […] min preincubation, room temperature

For assay [1], the target named is T1, rhPRDX2 (Homo sapiens, UniProt P32119).
T1 sequence (P32119 2-198): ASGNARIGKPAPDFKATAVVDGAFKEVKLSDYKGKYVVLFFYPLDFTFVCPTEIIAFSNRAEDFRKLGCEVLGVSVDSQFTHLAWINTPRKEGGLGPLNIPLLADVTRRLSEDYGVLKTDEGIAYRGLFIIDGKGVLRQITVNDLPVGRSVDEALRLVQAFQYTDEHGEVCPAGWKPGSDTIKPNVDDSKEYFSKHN

Assay [2] has as its target T2, rhPRDX4 (Homo sapiens, UniProt Q13162).
T2 sequence (Q13162 38-271): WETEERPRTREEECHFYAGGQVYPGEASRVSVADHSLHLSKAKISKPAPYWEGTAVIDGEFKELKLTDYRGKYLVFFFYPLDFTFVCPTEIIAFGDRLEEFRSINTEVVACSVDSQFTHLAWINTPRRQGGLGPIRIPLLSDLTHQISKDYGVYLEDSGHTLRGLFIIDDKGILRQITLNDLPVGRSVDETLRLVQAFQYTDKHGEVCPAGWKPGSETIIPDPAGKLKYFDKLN

The target in assay [3] is T3, rhPRDX6 (Homo sapiens, UniProt P30041).
T3 sequence (P30041 2-224): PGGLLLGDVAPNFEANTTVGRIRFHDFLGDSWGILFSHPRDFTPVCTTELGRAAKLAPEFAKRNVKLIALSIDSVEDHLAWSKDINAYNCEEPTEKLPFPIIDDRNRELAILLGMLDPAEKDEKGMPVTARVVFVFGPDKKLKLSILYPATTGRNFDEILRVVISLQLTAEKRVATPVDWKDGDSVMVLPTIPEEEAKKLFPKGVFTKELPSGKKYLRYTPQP

Experimental findings from publication PMC9136576 (Acta Pharmaceutica Sinica. B, 2021) are described below.

In the case of `CC1=C(O)C(=O)C=C2C1=CC=C1[C@@]2(C)CC[C@@]2(C)[C@@H]3C[C@](C)(C(=O)O)CC[C@]3(C)CC[C@]12C` [celastrol], the “% inhibition at 5 μmol/L” value in assay [1], in assay [2] and in assay [3] was “celastrol could significantly suppress the peroxidase activity of rhPRDXs for H2O2 reduction” in each case.
